Paper PMC4503722, “Novel Phenotypic Outcomes Identified for a Public Collection of Approved Drugs from a Publicly Accessible Panel of Assays” (PLoS ONE, 2015)
Read-outs that look alike come from different tables or passages of the source.

How the values were obtained:
HT-29 = experiment: cells; assay type: cell-based; conditions: for IC50 / Basal_Viability ATP HT-29 IC50/EC50: assay number 28; for IC50: read-out: Basal_Viability ATP HT-29 summarized IC50
Colo320 = experiment: cells; assay type: cell-based; conditions: for IC50: read-out: Basal_Viability ATP Colo 320 summarized IC50
SNU-C1 = experiment: cells; assay type: cell-based; conditions: for IC50: read-out: Basal_Viability ATP SNU-C1 summarized IC50
RKO = experiment: cells; assay type: cell-based; conditions: for IC50: read-out: Basal_Viability ATP RKO summarized IC50
SW480 = experiment: cells; assay type: cell-based; conditions: for IC50: read-out: Basal_Viability ATP SW480 summarized IC50
HCT116 = experiment: cells; assay type: cell-based; conditions: for IC50: read-out: Basal_Viability ATP HCT116 summarized IC50
DLD-1 = experiment: cells; assay type: cell-based; conditions: for IC50: read-out: Basal_Viability ATP DLD-1 summarized IC50
[1] = test system: HCT116 cells treated with a GSK3β inhibitor; experiment: cells; assay type: cell-based; conditions: for IC50: read-out: GSK3b inh pretreated_Viability ATP HCT116 summarized IC50
[2] = test system: endothelial tube formation in co-cultures of ECFCs and ADSCs treated with VEGF; experiment: cells; assay type: cell-based, human; conditions: for IC50: read-out: VEGF_ADSC\ECFC Angio CD31 TubeArea summarized IC50
[3] = test system: ECFC/ADSC co-culture cell nuclei number; conditions: for IC50: read-out: VEGF_ADSC\ECFC Angio Hoechst NucArea summarized IC50
HeLa cells = experiment: cells; assay type: cell-based;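 for Hela CellCycMod PI 4N summarized IC50: value tracks stimulation of 4N DNA content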
[4] = assay number 26, GSK3b inhibitor pretreated

Structure (SMILES): CC(C)=CC1C(C(=O)OCN2C(=O)C3=C(CCCC3)C2=O)C1(C)C (stereo not shown) [NCGC00168352-02]
- IC50/EC50, Basal_Viability ATP HT-29 (assay number 28) (HT-29; basal): > 20 µM
- IC50/EC50, Basal_Viability ATP Colo 320 (assay number 27) (Colo320; basal): > 20 µM
- IC50/EC50, Basal_Viability ATP SNU-C1 (assay number 30) (SNU-C1; basal): > 20 µM
- IC50/EC50, Basal_Viability ATP RKO (assay number 29) (RKO; basal): > 20 µM
- IC50/EC50, Basal_Viability ATP SW480 (assay number 24) (SW480; basal): > 20 µM
- IC50/EC50, Basal_Viability ATP HCT116 (assay number 25) (HCT116; basal): > 20 µM
- IC50/EC50, Basal_Viability ATP DLD-1 (assay number 23) (DLD-1; basal): > 20 µM

Structure (SMILES): Oc1ccc(Cl)cc1Cc1ccccc1 [NCGC00091532-06]
- IC50 (HT-29; basal): > 20 µM
- IC50 (Colo320; assay number 27, basal): 13 µM
- IC50 [1, 4]: > 6.67 µM
- IC50 (RKO; assay number 29, basal): > 20 µM
- IC50 (SW480; assay number 24, basal): > 20 µM
- IC50 (HCT116; assay number 25, basal): > 20 µM

Structure (SMILES): O=C(O)c1ccccc1OP(=O)(O)O [NCGC00016668-06]
- IC50 (HT-29; basal): > 20 µM
- IC50 (Colo320; assay number 27, basal): > 20 µM
- IC50 (SNU-C1; assay number 30, basal): > 20 µM
- IC50 (RKO; assay number 29, basal): > 20 µM
- IC50 (SW480; assay number 24, basal): > 20 µM
- IC50 (HCT116; assay number 25, basal): > 20 µM
- IC50 (DLD-1; assay number 23, basal): > 20 µM

Structure (SMILES): CN1Cc2cc(C(=O)N3CCC(C4CCNCC4)CC3)ccc2N[C@@H](CC(=O)O)C1=O [NCGC00319023-01]
- VEGF_ADSC\ECFC Angio CD31 TubeArea IC50/EC50 [2]: > 10 µM
- Basal_Viability ATP Colo 320 IC50/EC50 (Colo320; assay number 27, concentration response): > 20 µM
- GSK3b inh pretreated_Viability ATP HCT116 IC50/EC50 ([1]; assay number 26, GSK3b inhibitor pretreated, concentration response): > 20 µM
- VEGF_ADSC\ECFC Angio Hoechst NucArea IC50/EC50 [3]: > 10 µM
- Basal_Viability ATP SNU-C1 IC50/EC50 (SNU-C1; assay number 30, concentration response): > 20 µM
- Basal_Viability ATP RKO IC50/EC50 (RKO; assay number 29, concentration response): > 20 µM
- Basal_Viability ATP SW480 IC50/EC50 (SW480; assay number 24, concentration response): > 20 µM
- Basal_Viability ATP HCT116 IC50/EC50 (HCT116; assay number 25, basal, concentration response): > 20 µM
- Basal_Viability ATP DLD-1 IC50/EC50 (DLD-1; assay number 23, concentration response): > 20 µM

Structure (SMILES): C[S+](CC[C@H](N)C(=O)O)C[C@H]1O[C@@H](n2cnc3c(N)ncnc32)[C@H](O)[C@@H]1O (stereo partly shown) [NCGC00167546-03]
- VEGF_ADSC\ECFC Angio CD31 TubeArea IC50/EC50 [2]: > 10 µM
- Basal_Viability ATP Colo 320 IC50/EC50 (Colo320; assay number 27, basal): > 20 µM
- GSK3b inh pretreated_Viability ATP HCT116 IC50/EC50 [1, 4]: > 20 µM
- VEGF_ADSC\ECFC Angio Hoechst NucArea IC50/EC50 [3]: > 10 µM
- Basal_Viability ATP SNU-C1 IC50/EC50 (SNU-C1; assay number 30, basal): > 20 µM
- Basal_Viability ATP RKO IC50/EC50 (RKO; assay number 29, basal): > 20 µM
- Basal_Viability ATP SW480 IC50/EC50 (SW480; assay number 24, basal): > 20 µM
- Basal_Viability ATP HCT116 IC50/EC50 (HCT116; assay number 25, basal): > 20 µM
- Basal_Viability ATP DLD-1 IC50/EC50 (DLD-1; assay number 23, basal): > 20 µM

Structure (SMILES): Oc1ccc(Cl)cc1Sc1cc(Cl)ccc1O [NCGC00013679-06]
- IC50 [2]: 3.53 µM
- IC50 (Colo320): 0.075 µM
- IC50 [1]: 0.148 µM
- IC50 [3]: 8.69 µM
- IC50 (SNU-C1): 1.85 µM
- IC50 (RKO): 0.116 µM
- IC50 (SW480): 0.579 µM
- IC50 (HCT116): 0.183 µM
- IC50 (DLD-1): 0.301 µM

Structure (SMILES): CC(C)(C)NCC(O)c1cc(O)cc(O)c1.CC(C)(C)NCC(O)c1cc(O)cc(O)c1.O=S(=O)(O)O (stereo not shown) [NCGC00016010-09]
- Basal_Viability ATP HT-29 IC50/EC50 (HT-29): > 20 µM
- Basal_Viability ATP Colo 320 IC50/EC50 (Colo320; assay number 27): > 20 µM
- Basal_Viability ATP RKO IC50/EC50 (RKO; assay number 29): > 20 µM
- Basal_Viability ATP SW480 IC50/EC50 (SW480; assay number 24): > 20 µM
- Basal_Viability ATP HCT116 IC50/EC50 (HCT116; assay number 25, basal): > 20 µM
- Basal_Viability ATP DLD-1 IC50/EC50 (DLD-1; assay number 23): > 20 µM

Structure (SMILES): Cc1cc(-c2ccc(N=Nc3c(S(=O)(=O)O)cc4cc(S(=O)(=O)O)cc(N)c4c3O)c(C)c2)ccc1N=Nc1c(S(=O)(=O)O)cc2cc(S(=O)(=O)O)cc(N)c2c1O [NCGC00344528-01]
- IC50/EC50, VEGF_ADSC\ECFC Angio CD31 TubeArea (assay number 2) [2]: > 10 µM
- IC50/EC50, Basal_Viability ATP HT-29 (assay number 28) (HT-29; basal): > 20 µM
- IC50/EC50, Basal_Viability ATP Colo 320 (assay number 27) (Colo320; basal): > 20 µM
- IC50/EC50, GSK3b inh pretreated_Viability ATP HCT116 (assay number 26) ([1]; GSK3b inh pretreated): > 20 µM
- IC50/EC50, VEGF_ADSC\ECFC Angio Hoechst NucArea (assay number 3) [3]: > 10 µM
- IC50/EC50, Basal_Viability ATP RKO (assay number 29) (RKO; basal): > 20 µM
- IC50/EC50, Basal_Viability ATP SW480 (assay number 24) (SW480; basal): > 20 µM
- IC50/EC50, Basal_Viability ATP HCT116 (assay number 25) (HCT116; basal): > 20 µM
- IC50/EC50, Basal_Viability ATP DLD-1 (assay number 23) (DLD-1; basal): > 20 µM

Structure (SMILES): CCCCCCCCCCCC[N+](C)(C)Cc1ccccc1 [NCGC00164245-03]
- IC50 [2]: > 10 µM
- IC50 (HT-29; basal): 0.465 µM
- IC50 [1, 4]: > 20 µM
- IC50 [3]: 6.93 µM
- IC50 (SNU-C1; assay number 30, basal): 0.02 µM
- IC50 (HeLa cells; assay number 14, 2N, read-out: Hela CellCycMod PI 2N summarized IC50): > 10 µM
- IC50 (HeLa cells; assay number 15, S phase, read-out: Hela CellCycMod PI S Phase summarized IC50): > 10 µM
- IC50 (HeLa cells; assay number 16, 4N, read-out: Hela CellCycMod PI 4N summarized IC50): > 10 µM
- IC50 (HeLa cells; assay number 17, MI, read-out: Hela CellCycMod PI MI summarized IC50): > 10 µM
- IC50 (HeLa cells; assay number 18, cell number, read-out: Hela CellCycMod PI Cell Number summarized IC50): > 10 µM
- IC50 (DLD-1; assay number 23, basal): 0.738 µM

Structure (SMILES): Cc1nc2ccccc2n1Cc1ccc(Cl)cc1 [NCGC00160416-02]
- VEGF_ADSC\ECFC Angio CD31 TubeArea IC50/EC50 [2]: 7.3825 µM
- Basal_Viability ATP HT-29 IC50/EC50 (HT-29; basal): > 20 µM
- Basal_Viability ATP Colo 320 IC50/EC50 (Colo320; assay number 27, basal): 15.1764 µM
- VEGF_ADSC\ECFC Angio Hoechst NucArea IC50/EC50 [3]: > 10 µM
- Basal_Viability ATP SNU-C1 IC50/EC50 (SNU-C1; assay number 30, basal): > 20 µM
- Basal_Viability ATP SW480 IC50/EC50 (SW480; assay number 24, basal): 5.3305 µM
- Basal_Viability ATP HCT116 IC50/EC50 (HCT116; assay number 25, basal): 1.219 µM
- Hela CellCycMod PI 2N IC50/EC50 (HeLa cells; assay number 14, 2N): > 10 µM
- Hela CellCycMod PI 4N IC50/EC50 (HeLa cells; assay number 16, 4N): > 10 µM
- Hela CellCycMod PI MI IC50/EC50 (HeLa cells; assay number 17, MI): > 10 µM
- Hela CellCycMod PI Cell Number IC50/EC50 (HeLa cells; assay number 18, cell number): 0.03183 µM
- Basal_Viability ATP DLD-1 IC50/EC50 (DLD-1; assay number 23, basal): > 20 µM
